Test results published in patent US20080076824A1, “Compounds That Inhibit Replication Of Human Immunodeficiency Virus” (priority 2004, published 2008).
Like-named read-outs stand apart in the source and are kept apart here. Residues, ends and D or L forms follow the SMILES beside them.

Key:
[1] = system: Respiratory syncytial virus; conditions: read-out: Minimum inhibitory concentration Respiratory syncytial virus; HeLa; reduces virus-induced cytopathogenicity by 50%
Coxsackie virus B4 [2] = experiment: Antiviral activity in HeLa cell cultures, Coxsackie virus B4; type: cell-based; conditions: reduces virus-induced cytopathogenicity by 50%, read-out: Minimum inhibitory concentration Coxsackie virus B4
Protocol: (§1) The cytotoxicity and antiviral activity of various concentrations of G-NH2 and GPG-NH2 were evaluated in cell cultures that were infected with various types of viruses. Conventional host cell culture, viral infection, and infectivity analysis for each different type of cell and virus were followed. Compounds that were known to inhibit replication of the particular types of viruses analyzed were used as controls.

HIV-1 = conditions: for anti-HIV activity in the presence of IlePyr: 200 and 500 μM IlePyr, in words
[3] = system: Herpes simplex virus-1 TK^− KOS ACV^r; conditions: read-out: Minimum inhibitory concentration Herpes simplex virus-1 TK^− KOS ACV^r; HEL; reduces virus-induced cytopathogenicity by 50%
Sindbis virus = conditions: read-out: Minimum inhibitory concentration Sindbis virus; Vero; reduces virus-induced cytopathogenicity by 50%
Vaccinia virus = conditions: read-out: Minimum inhibitory concentration Vaccinia virus; HEL; reduces virus-induced cytopathogenicity by 50%
[4] = system: Herpes simplex virus-2 (G); conditions: read-out: Minimum inhibitory concentration Herpes simplex virus-2 (G); HEL; reduces virus-induced cytopathogenicity by 50%
Punta Toro virus = conditions: read-out: Minimum inhibitory concentration Punta Toro virus; Vero; reduces virus-induced cytopathogenicity by 50%
[5] = system: Herpes simplex virus-1 (KOS); conditions: read-out: Minimum inhibitory concentration Herpes simplex virus-1 (KOS); HEL; reduces virus-induced cytopathogenicity by 50%
Coxsackie virus B4 [6] = experiment: Antiviral activity in Vero cell cultures, Coxsackie virus B4; type: cell-based; conditions: reduces virus-induced cytopathogenicity by 50%, read-out: Minimum inhibitory concentration Coxsackie virus B4
Protocol: as §1

[7] = read-out: 50% effective concentration, HIV replication in CEM cell cultures
[8] = read-out: EC50 (CEM) HIV-1 (IIIB), Table 19
[9] = read-out: EC50 HIV-1 IIIB, CEM cell cultures, syncytia formation, Table 1

Compound	EC50 [1]	EC50 (Coxsackie virus B4 [2])	anti-HIV activity in the presence of IlePyr (HIV-1)	EC50 [3]	EC50 (HIV-1 (IIIB); [7])	EC50 (HIV-1 (IIIB); [8])	EC50 (HIV-1 (IIIB); [9])	EC50 (Sindbis virus)	EC50 (Vaccinia virus)	EC50 [4]	EC50 (Punta Toro virus)	EC50 [5]	EC50 (Coxsackie virus B4 [6])	EC50 (HIV-1; CEM cell cultures, presence of 200 and 500 μM of IlePyr)	ability to inhibit the replication of HIV (HIV-1 (IIIB); G-NH2 in medium with heat inactivated serum (10% fetal bovine serum, 95° C., 30 minutes))	inhibition of replication of HIV (HIV-1 (IIIB); boiled fetal bovine serum or human serum samples, results the experiments will show)	EC50 (HIV-1 (IIIB); read-out: EC50 (CEM) HIV-1(IIIB), Table 20)	EC50 (HIV-1 (IIIB); read-out: EC50 against HIV-1(IIIB), CEM cell cultures, Table 2)	EC50 (HIV-1 (IIIB); read-out: EC50 against HIV-1(IIIB), CEM cell cultures, Table 2, listed as Glycinamide)
NCC(=O)N1CCC[C@H]1C(=O)NCC(N)=O [GPG-NH2, glycylprolylglycinamide] (H-Gly-Pro-Gly-NH2)	> 400 µM	> 400 µM	markedly lost its inhibitory activity	> 400 µM	~30 µM	30 µM	35 ± 8.7 µM	> 400 µM	> 400 µM	> 400 µM	> 400 µM	> 400 µM	> 400 µM	–	–	–	–	–	–
NCC(N)=O [G-NH2, glycinamide]	> 2000 µM	> 2000 µM	fully preserved its anti-HIV activity	> 2000 µM	~30 µM	25 ± 7.1 µM	32 ± 7.6 µM	> 2000 µM	> 2000 µM	> 2000 µM	> 2000 µM	> 2000 µM	> 2000 µM	35 to 43 µM	lost its ability to inhibit the replication of HIV	does not	25 ± 7.1 µM	~21.3 µM	21.3 ± 16.3 µM
